Assay results reported in a melting point compilation (Tetko et al.; mined from patent text by program, amines drawn as free bases though some values may be those of a salt).

melting point | Compound
211 °C | CCCCc1nc(SC)c(C(=O)OCC)n1Cc1ccc(-c2ccc(S(=O)(=O)NC#N)cc2C)cc1
57.8 to 58.9 °C | CCCCCS(=O)(=O)NC(=O)CCc1ccc(OCCOC)cc1OCC1CCCO1 (centres undefined)
110 to 112 °C | O=C(O)Cc1ccc(OCc2ccccc2)c(OCCc2ccccc2)c1
116 to 118 °C | C=C(c1ccc(OC)cc1)c1cc(C(=C)c2ccc(OC)cc2)cc(C(=C)c2ccc(OC)cc2)c1
152 to 154 °C | NC(=O)Cc1ccc2c(c1)C(=O)Cc1ccccc1O2
233 to 235 °C | CNC1CCN(c2c(F)cc3c(=O)c(C(=O)O)cn(C4CC4)c3c2C)CC1C (centres undefined)
161 to 163 °C | CS(=O)(=O)N=c1oc2ccccc2o1
68 to 69 °C | C=CCC1(c2ccc(Br)cc2)C2CCC(C(=O)C2)C1Nc1ccc(OC)cc1 (centres undefined)
123 to 125 °C | Cc1ccnc2c(Oc3ccccc3NS(=O)(=O)c3ccc(Cl)cc3)cccc12
212 to 213 °C | COc1ccc(Cn2c(C)cc3cn[nH]c(=O)c32)cc1
165 to 166 °C | Cn1c(CCN2CCN(c3cccc(C(F)(F)F)c3)CC2)nc2cc(Br)c3ccccc3c21
104 to 107 °C | CC(=O)NC1(c2ccc(C(C)Cl)cc2)CC1 (centres undefined)
65 to 66 °C | O=Cc1c(Cl)ncnc1Cl
108 to 110 °C | CCCCOc1ccc2nc(C(=O)O)c(OCc3ccccc3)cc2c1
123 to 125 °C | Cc1cc(O)c(SCc2ccccc2F)c(=O)o1
156 to 158 °C | O=C1Nc2cccnc2N(C(=O)NCCN2CCCCC2CN2CCCCCC2)c2ccccc21 (centres undefined)
30 °C | C=CC(=O)OCCCCCCOc1ccc(C=O)cc1
149 to 151 °C | NS(=O)(=O)c1ccccc1CN1CCCC1=O
156 to 158 °C | CC(C)n1c(=O)ccc2cnc(Nc3cccnc3)nc21
115 to 117 °C | COc1ccc2cc(C=NCc3ccccc3)ccc2c1
185 to 191 °C | CC1(C)C(=O)Nc2ccc(N)cc21
282 to 283 °C | CCOC(=O)Cn1c(=O)c(=O)[nH]c2cc(Br)ccc21
74 to 75 °C | CCOC(=O)c1nn(-c2ccc(C)cc2)nc1-c1ccccc1

melting point | Compound
182 °C | OC(Cc1ccc(Cl)cc1)(Cn1ccnc1)c1ccc(-c2ccccc2)cc1 (centres undefined)
113 °C | O=C1[C@H](CC[C@H](O)c2ccc(F)cc2)[C@@H](c2ccc(O)c(-c3ccccc3)c2)N1c1ccc(F)cc1
133 to 134 °C | Cc1nc(N2C(=O)N(Cc3ccc(F)cc3)CC2O)sc1C(=O)NCc1ccccc1 (centres undefined)
68 to 70 °C | Cc1cc(OCc2ccc(-c3ccccc3-c3nnn(C(c4ccccc4)(c4ccccc4)c4ccccc4)n3)cc2)c(CO)c(C)n1
118 to 120 °C | COc1cccc2c1nnn2C1CCCCC1
122 to 124 °C | COc1cccc(Sc2ccnc(Nc3cccc(CCO)c3)n2)c1
177 °C | Cc1ccc(Cn2c(NC3CCN(CC#N)CC3)nc3ccccc32)o1
130 to 132 °C | OCCC(O)(c1ccc(Br)cc1)c1cccnc1 (centres undefined)
244 to 250 °C | CC(O)Cn1cnc2c(=O)[nH]cnc21 (centres undefined)
67 °C | Oc1c(CN2CCCC2)cc(Nc2ccnc3ccccc23)cc1CN1CCCC1
144 to 149 °C | O=P(O)(O)c1cccc(Br)c1
157 °C | OCCn1c(NC2CCNCC2)nc2cccnc21
80 °C | CC(=O)CCCCCCCCCCCCC(C)=O
99 to 100 °C | O=C1CCCN1C(=O)Oc1ccc(Cl)cc1
118 to 124 °C | CCC(C)(C)c1ccc(OCCCCc2c(O)cc3ccccc3c2C(N)=O)c(C(C)(C)CC)c1
158 to 159 °C | Fc1ccc2c(C3CCC4(CC3)OCCO4)c[nH]c2c1
205 to 207 °C | COc1cc2c(cc1OC)-c1c(C#N)sc(=O)n1CC2
183 to 184 °C | Brc1cc(Cc2ccc3ccccc3c2)cc(Br)c1OCc1nnn[nH]1
130 to 132 °C | COC(=O)C1CCCN(COS(C)(=O)=O)c2c1cc(OCc1ccccc1)c1ccccc21 (centres undefined)
181 to 184 °C | CC(=O)CCc1nc2c(N)nc3ccccc3c2n1CC(C)(C)O
69 °C | O=S(=O)(c1ccc(F)cc1)N1CCCC1c1ccco1 (racemic)
202 to 204 °C | CCCOc1ccc(S(=O)(=O)NCCN(C)C)cc1-c1nc2cc(N)c(N)cc2c(=O)[nH]1
62 to 64 °C | COc1cccc2c1C(C)(C)c1ccccc1C2

melting point | Compound
216 to 218 °C | Clc1ccc2c3c(cnc2c1)OC1(C=N3)CCCCC1
185 to 186 °C | COc1ccc(/C=C/C(=O)N2CC(CCl)c3c2cc(NC(=O)OC(C)(C)C)c2ccccc32)cc1 (centres undefined)
162 to 164 °C | COc1cc2ncnc(N3CCC(CCNS(C)(=O)=O)CC3)c2cc1OC
122 to 123 °C | CCOC(=O)c1cc(C(=O)OC)c(CCN2C(=O)c3ccccc3C2=O)o1
102 to 103 °C | Cc1nn(CCBr)c(=O)c2ccccc12
61.5 to 63.1 °C | CCOC(=O)c1cn(C)nc1C(F)(F)F
252 to 254 °C | O=C(Oc1ccc(-c2ccc(OC(=O)c3cc(O)c(Br)c(O)c3)cc2)cc1)c1ccc(O)c(O)c1
98 to 99 °C | Nc1ncc(CCC2CCCCC2)s1
170 to 171 °C | O=C(O)CCOc1ccccc1-c1nc(-c2ccccc2)no1
116 to 117 °C | CC(C)Oc1nc(-c2ccc(Cl)cc2)c(CCC(=O)O)o1
76 to 77.5 °C | CCCCCCC1(C(=O)NCCC)c2ccccc2Oc2ccccc21
280 to 282 °C | Nc1nc2c(Cc3ccccn3)c[nH]c2c(=O)[nH]1
205 °C | CCCNC(=O)Nc1ccc(C(=O)c2ncc3ccccn23)cc1C(=O)OC
108 to 109 °C | COc1ccccc1CCc1c(CO)ccc(OC)c1OC
177 to 182 °C | COC(=O)c1ccccc1-c1ccc(CNc2nc(Cl)nc3ccsc23)cc1
126 to 128 °C | O=C1c2cc([N+](=O)[O-])ccc2SC12CC2
118 to 119 °C | COc1ccc(Nc2ccc(O)cc2)c(C(C)=O)c1
81 to 82 °C | COc1ccc(-c2sc(-c3ccccc3)cc2OC(C)=O)cc1
113 to 115 °C | CCOC(=O)c1c(C(F)(F)F)nc(C(F)(F)F)c(C(=O)O)c1Cl
168 °C | COc1ccc(S(=O)(=O)N2C(=O)C(c3ccccc3OC)(N3Cc4ccccc4C3C(=O)N(C)C)c3cc(Cl)ccc32)c(OC)c1 (centres undefined)
136 to 137 °C | O=C(c1ccc([N+](=O)[O-])c([N+](=O)[O-])c1)N1CCOCC1

Compound | melting point
CN1CCC(c2n[nH]c3cc(Cl)ccc23)CC1 | 211 to 213 °C
Cc1cc(F)ccc1C(=O)CCCN1CCC2(CC1)C(=O)NCN2c1ccccc1 | 180 to 182 °C
NCCC1CCSc2[nH]c3ccccc3c21 (centres undefined) | 136 to 138 °C
CCN1CCN(c2cccc3c2C[C@H](NC(C)=O)CC3)CC1 | 142 to 143 °C
O=C1OC2(CCNCC2)CN1Cc1ccccc1 | 69 to 71 °C
O=C1CN=C(c2ccccc2Br)c2cc(F)ccc2N1 | 194 to 196 °C
O=C1C2CCCCN2C(=O)N1c1ccc([N+](=O)[O-])c2ccccc12 (centres undefined) | 190 to 192 °C
